In patent US10952438B2, “Pesticidal composition and method for controlling pests” (ISHIHARA SANGYO KAISHA, LTD., priority 2017, dated 2021) one finds mortality data, which are given here for 2 compounds.

What all share (type): in vivo
The test system of assay [1] is Comstock mealybug (Pseudococcus comstocki). Kind of assay: Test Example 1: test on effects against Comstock mealybug, leaf disk spray. Conditions: foliar, 168 h, first instar larvae, 7 days after application, read-out: Corrected mortality. From the text: (§1) A plastic cup (diameter 9 cm, height: 4 cm) filled with tap water was covered with a plastic lid (diameter 9 cm, with a hole having a diameter of 0.5 cm at its center portion), and an absorbent cotton sheet (diameter 9 cm) as shown in FIG. 1 was placed thereon. The cut portion of the absorbent cotton sheet was put into the plastic cup through the hole at the center portion of the lid and dipped in the tap water. Filter paper (diameter 9 cm) was placed on the absorbent cotton sheet, and a kidney bean primary leaf was further placed thereon so that the abaxial side faced upward. The kidney bean primary leaf was covered with filter paper (diameter 9 cm, with a hole having a diameter of 3 cm at its center portion) to prepare a leaf disk.
(§2) Thirty first instar larvae of Comstock mealybug (Pseudococcus comstocki) were released on the hole at the center portion of the leaf disk, and the leaf disk was left at rest in a breeding room (25° C., humidity: 60%). Two days later, the number of surviving larvae in the leaf disk was examined, and then a chemical solution at predetermined concentrations of active ingredients was sprayed on the leaf disc by a rotary spraying apparatus (tower sprayers TS-301) in an application amount corresponding to 100 L/10 a, and the leaf disk was left at rest in the breeding room. Seven days after application, the number of surviving larvae was examined, and the difference with the number of surviving larvae before application was taken as the mortality. The same test was conducted using tap water as a negative control, the corrected mortality (%) was calculated in accordance with the formula 1, and the results are shown in Table 1. Further, in accordance with the Colby's formula, the theoretical value (%) was calculated based on the obtained corrected mortality and shown in brackets in Table 1. The composition of the present invention has a synergistic pesticidal effect when the corrected mortality is higher than the theoretical value by the Colby's formula. The test was conducted three times. Corrected mortality (%)=100×((morality in treated area−mortality in control area)/(100−mortality in control area)) Formula 1

Assay [2] has the same test system. Nature of the assay: Test Example 2: same test as Test Example 1, different flonicamid concentration. Conditions: 168 h, first instar larvae, 7 days after application, read-out: Corrected mortality.
Source text: as §1
as §2, with “Corrected mortality (%)=100×((morality in treated area−mortality in control area)/(100−mortality in control area)) Formula 1” left out

Assay [3] has the same test system. Kind of assay: Test Example 3: same test as Test Example 1, different flonicamid and D-limonene concentrations. Conditions: 168 h, first instar larvae, 7 days after application, read-out: Corrected mortality.
Source text: as §1, §2
The test was conducted in the same manner as in Test Example 1 except that the concentrations of flonicamid and D-limonene were different.

One may read the mortality as the percentage killed. Consider `C=C(C)[C@H]1CC=C(C)CC1` [D-Limonene, (4R)-p-menth-1,8-diene], for which the mortality at 720 ppm amounted to 7.7% in assay [1] (D-limonene 720 ppm alone) and 4.5% in assay [2] (D-limonene 720 ppm alone). Besides, the figures for the mortality at 1440 ppm in assay [1] (D-limonene 1440 ppm alone) and in assay [2] (D-limonene 1440 ppm alone) were 27.7% and 21.3%, respectively. For the same compound, the mortality at 180 ppm in assay [3] (D-limonene 180 ppm alone) turned out to be 0%. For the same compound, the mortality at 360 ppm in assay [3] (D-limonene 360 ppm alone) was 35.1%.
For `N#CCNC(=O)c1cnccc1C(F)(F)F` [Flonicamid, N-cyanomethyl-4-trifluoromethyl-3-pyridinecarboxamide], the mortality at 10 ppm in assay [1] (flonicamid 10 ppm alone) amounted to 7.9%. For the same compound, the mortality at 20 ppm in assay [1] (flonicamid 20 ppm alone) was 16.1%. Also, the mortality at 160 ppm is 68.8% in assay [2] (flonicamid 160 ppm alone) and 55% in assay [3] (flonicamid 160 ppm alone). The mortality at 80 ppm in assay [3] (flonicamid 80 ppm alone) turned out to be 25.5%.
